ChEMBL document CHEMBL1157840, “Synthesis and the selective antifungal activity of 5,6,7,8-tetrahydroimidazo[1,2-a]pyridine derivatives” (Eur J Med Chem, 2010)
Values after ≈ are worked out from the molar mass of the structure shown.

Key:
Cyberlindnera jadinii = experiment: Antifungal activity against Candida utilis NRRL Y-900 after 24 hrs by broth microdilution assay; assay type: functional; settings: Williopsis jadinii, NRRL Y-900, 24 h
Candida albicans [1] = experiment: Antifungal activity against Candida albicans clinical isolate after 24 hrs by broth microdilution assay; assay type: functional
SK-MEL = experiment: Cytotoxicity against human SK-MEL cells up to 25 ug/ml after 48 hrs by neutral red assay; assay type: cell-based
[2] = Cytotoxicity against african pig LLC-PK11 up to 25 ug/ml after 48 hrs by neutral red assay; design: species or system Sus scrofa
Candida parapsilosis = experiment: Antifungal activity against Candida parapsilosis NRRL Y-12696 after 24 hrs by broth microdilution assay; assay type: functional; settings: Lodderomyces parapsilosis, NRRL Y-12696, 24 h
Nakaseomyces glabratus [3] = experiment: Antifungal activity against Candida glabrata clinical isolate 2 after 24 hrs by broth microdilution assay; assay type: functional
Vero = experiment: Cytotoxicity against african green monkey Vero cells up to 25 ug/ml after 48 hrs by neutral red assay; assay type: cell-based; settings: chlorocebus sabaeus
[Candida] zeylanoides = Antifungal activity against Candida zeylanoides NRRL Y-1774 after 24 hrs by broth microdilution assay; assay type: functional; settings: Dujonia zeylanoides, NRRL Y-1774, 24 h
BT-549 = experiment: Cytotoxicity against human BT549 cells up to 25 ug/ml after 48 hrs by neutral red assay; assay type: cell-based; settings: bt-549, 48 h
Candida albicans [4] = experiment: Antifungal activity against Candida albicans NRRL Y-12983 after 24 hrs by broth microdilution assay; assay type: functional; settings: NRRL Y-12983, 24 h
SK-OV-3 = experiment: Cytotoxicity against human SKOV3 cells up to 25 ug/ml after 48 hrs by neutral red assay; assay type: cell-based; settings: sk-ov-3, 48 h
Pichia kudriavzevii = experiment: Antifungal activity against Candida krusei NRRL Y-7179 after 24 hrs by broth microdilution assay; assay type: functional; settings: NRRL Y-7179, 24 h
Nakaseomyces glabratus [5] = experiment: Antifungal activity against Candida glabrata clinical isolate 1 after 24 hrs by broth microdilution assay; assay type: functional; settings: isolate 1, 24 h
Candida tropicalis = experiment: Antifungal activity against Candida tropicalis NRRL Y-12968 after 24 hrs by broth microdilution assay; assay type: functional; settings: NRRL Y-12968, 24 h
Candida albicans [6] = experiment: Antifungal activity against Candida albicans ATCC 90028 after 24 hrs by broth microdilution assay; assay type: functional; settings: ATCC 90028, 24 h

SMILES	MIC (Cyberlindnera jadinii) [µg/mL]	MIC (Candida albicans [1]) [µg/mL]	Activity (SK-MEL)	Activity [2]	MIC (Candida parapsilosis) [µg/mL]	MIC (Nakaseomyces glabratus [3]) [µg/mL]	Activity (Vero)	MIC ([Candida] zeylanoides) [µg/mL]	Activity (BT-549)	MIC (Candida albicans [4]) [µg/mL]	Activity (SK-OV-3)	MIC (Pichia kudriavzevii) [µg/mL]	MIC (Nakaseomyces glabratus [5]) [µg/mL]	MIC (Candida tropicalis) [µg/mL]	MIC (Candida albicans [6]) [µg/mL]
O=C(N/N=C/c1ccc([N+](=O)[O-])cc1)c1cn2c(n1)CCCC2	0.5 (≈ 1.6 µM)	0.125 (≈ 0.399 µM)	Non-toxic	Non-toxic	0.25 (≈ 0.798 µM)	0.25 (≈ 0.798 µM)	Non-toxic	0.25 (≈ 0.798 µM)	Non-toxic	0.25 (≈ 0.798 µM)	Non-toxic	0.5 (≈ 1.6 µM)	0.5 (≈ 1.6 µM)	0.25 (≈ 0.798 µM)	0.5 (≈ 1.6 µM)
CN(C)c1ccc(/C=N/NC(=O)c2cn3c(n2)CCCC3)cc1	> 0.25	0.125 (≈ 0.401 µM)	Non-toxic	Non-toxic	> 0.25	> 0.25	Non-toxic	> 0.25	Non-toxic	> 0.25	Non-toxic	> 0.25	> 0.25	0.125 (≈ 0.401 µM)	> 0.25
O=C(N/N=C/c1ccc(Cl)cc1)c1cn2c(n1)CCCC2	> 0.25	0.125 (≈ 0.413 µM)	Non-toxic	Non-toxic	0.5 (≈ 1.65 µM)	0.125 (≈ 0.413 µM)	Non-toxic	> 0.25	Non-toxic	0.5 (≈ 1.65 µM)	Non-toxic	> 0.25	> 0.25	> 0.25	0.5 (≈ 1.65 µM)
Cc1ccc(/C=N/NC(=O)c2cn3c(n2)CCCC3)cc1	> 0.25	0.032 (≈ 0.113 µM)	Non-toxic	Non-toxic	0.5 (≈ 1.77 µM)	> 0.25	Non-toxic	> 0.25	Non-toxic	> 0.25	Non-toxic	> 0.25	> 0.25	0.125 (≈ 0.443 µM)	> 0.25
COC1=CC(=O)C[C@@H](C)[C@]12Oc1c(Cl)c(OC)cc(OC)c1C2=O [GRISEOFULVIN]	0.5 (≈ 1.42 µM)	0.25 (≈ 0.709 µM)	Non-toxic	Non-toxic	0.5 (≈ 1.42 µM)	0.125 (≈ 0.354 µM)	Non-toxic	0.5 (≈ 1.42 µM)	Non-toxic	–	Non-toxic	0.25 (≈ 0.709 µM)	0.25 (≈ 0.709 µM)	0.125 (≈ 0.354 µM)	–
O=C(N/N=C/c1ccc(Br)cc1)c1cn2c(n1)CCCC2	1 (≈ 2.88 µM)	1 (≈ 2.88 µM)	Non-toxic	Non-toxic	1 (≈ 2.88 µM)	0.25 (≈ 0.72 µM)	Non-toxic	1 (≈ 2.88 µM)	Non-toxic	0.125 (≈ 0.36 µM)	Non-toxic	0.25 (≈ 0.72 µM)	0.5 (≈ 1.44 µM)	0.5 (≈ 1.44 µM)	0.5 (≈ 1.44 µM)
N#Cc1ccc(/C=N/NC(=O)c2cn3c(n2)CCCC3)cc1	0.032 (≈ 0.109 µM)	0.032 (≈ 0.109 µM)	Non-toxic	Non-toxic	0.032 (≈ 0.109 µM)	0.032 (≈ 0.109 µM)	Non-toxic	0.032 (≈ 0.109 µM)	Non-toxic	0.032 (≈ 0.109 µM)	Non-toxic	< 0.016	0.032 (≈ 0.109 µM)	< 0.016	0.063 (≈ 0.215 µM)
CC(=O)N1CCN(c2ccc(OCC3COC(Cn4ccnc4)(c4ccc(Cl)cc4Cl)O3)cc2)CC1 (stereo not drawn) [KETOCONAZOLE]	0.125 (≈ 0.235 µM)	0.063 (≈ 0.119 µM)	Non-toxic	Non-toxic	0.032 (≈ 0.0602 µM)	0.032 (≈ 0.0602 µM)	Non-toxic	0.5 (≈ 0.941 µM)	Non-toxic	0.032 (≈ 0.0602 µM)	Non-toxic	0.125 (≈ 0.235 µM)	0.125 (≈ 0.235 µM)	0.125 (≈ 0.235 µM)	0.063 (≈ 0.119 µM)
O=C(N/N=C/c1ccc2c(c1)OCO2)c1cn2c(n1)CCCC2	0.125 (≈ 0.4 µM)	0.063 (≈ 0.202 µM)	Non-toxic	Non-toxic	> 0.25	> 0.25	Non-toxic	> 0.25	Non-toxic	> 0.25	Non-toxic	> 0.25	> 0.25	0.125 (≈ 0.4 µM)	> 0.25
Clc1ccccc1C(c1ccccc1)(c1ccccc1)n1ccnc1 [CLOTRIMAZOLE]	< 0.08	< 0.08	Non-toxic	Non-toxic	< 0.08	< 0.08	Non-toxic	0.125 (≈ 0.362 µM)	Non-toxic	< 0.08	Non-toxic	< 0.08	< 0.08	0.032 (≈ 0.0928 µM)	< 0.08
CC(C)c1ccc(/C=N/NC(=O)c2cn3c(n2)CCCC3)cc1	> 0.25	0.125 (≈ 0.403 µM)	Non-toxic	Non-toxic	> 0.25	0.5 (≈ 1.61 µM)	Non-toxic	> 0.25	Non-toxic	> 0.25	Non-toxic	> 0.25	> 0.25	0.125 (≈ 0.403 µM)	> 0.25
